This test deals with RCC4, RCC4/VHL, SN12C and SN12C-VHL shRNA cells. In words: Acidic vesicle organelles with acridine orange (FACS). It counts as cell-based. The note with it: 1.25 μM, VHL-deficient versus wild-type VHL cells. On the procedure: Quantification of Acidic Vesicle Organelles with Acridine Orange. In acridine orange-stained cells, the cytoplasm and nucleus are bright green and dim red, whereas acidic compartments are bright red. The intensity of the red fluorescence is proportional to the degree of acidity. Following 20 hours of treatment with STF-62247 or analogs, cells were stained with 1 μg/ml of acridine orange for 15 min. Cells were trypsinized and then analyzed by flow cytometry using FACScan cytometer and CellQuest software.
A. VHL-deficient RCC4 and wild-type VHL were incubated in presence of 10 μM LY294002, or 1 μg/mlBrefeldin A with 1.25 μM of STF-62247 for 20 hrs and the presence of vacuoles was examined under light microscopy. B,C. LC3 processing was evaluated by Western blot after the treatment with Brefeldin A or LY294002 in presence or absence of STF-62247 as described above. Tubulin was used as loading control. D. Cells were treated with 1.25 μM of STF-62247 with or without 2 mM of 3-MA, 1 μg/ml of Brefeldin A for 20 hrs. For the last 15 min, acidic components were stained with 1 μg/ml of acridine orange and visualized under fluorescence microscope. […] F. Quantification of the FACS analysis. The data are calculated as the average of three different experiments as relative units of treated over untreated cells. The error bars are represented as the standard error of the mean (SEM).
A. RCC4 and RCC4/VHL were treated with 1.25 μM of each 19 analogs for 20 hours and the presence of vacuoles was examined under light microscopy. B. Western blot for LC3 after treatment with each compound. Tubulin was used as loading control. Ratio is the relative from the IC50 in RCC4/VHL cells/IC50 in RCC4 cells. C. Acidic vesicle organelles (AVO) measured by FACS analysis in cells treated with 1.25 μM of STF-62247 or with compounds 21, 15, 25, 47, and 53 and stained with acridine orange.

Molecules are shown by their SMILES.

For `Cc1cccc(Nc2nc(-c3ccncc3)cs2)c1` [Compound 5, N-(3-Methylphenyl)-4-(4-pyridinyl)-1,3-thiazol-2-amine], the “acridine orange staining / amount of AVOs” value is reported as “significantly increased in VHL-deficient RCC4 cells compared to their wild-type VHL counterparts”.

For the origin of these results see patent publication US20110105436A1, “HETEROARYL COMPOUNDS, COMPOSITIONS, AND METHODS OF USE IN CANCER TREATMENT” (AUCKLAND UNISERVICES LIMITED, priority 2008, published 2011).
